# Tests used:
# Assay type in all cases: in vivo
# [1] = test system: Italian ryegrass (Lolium multiflorum); test: Test A preemergence, visual plant response rating
# Method in brief: (§1)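 Formulated in a non-phytotoxic solvent mixture including surfactant, each test chemical was sprayed onto the soil surface after sowing, or onto seedlings 2 to 10 cm high. Roughly 10 days later, plants were compared with untreated controls and rated for injury from 0 (no effect) to 100 (complete control).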
# [2] = test system: barnyardgrass (Echinochloa crus-galli); test: Test A preemergence, visual plant response rating
# Method in brief: as §1
# [3] = test system: foxtail, giant (giant foxtail, Setaria faberii); test: Test A preemergence, visual plant response rating
# Method in brief: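 Greenhouse pot test in loam–sand soil mix: compound in a surfactant-containing non-phytotoxic solvent applied preemergence (directed soil spray) or postemergence (one- to two-leaf plants, 2–10 cm). Injury scored visually after ~10 days, 0–100.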
# kochia (Kochia scoparia) [4] = test: Test A preemergence, visual plant response rating
# Method in brief: as §1
# [5] = test system: pigweed (Amaranthus retroflexus); test: Test A preemergence, visual plant response rating
# Method in brief: as §1
# [6] = test system: ragweed (common ragweed, Ambrosia elatior); test: Test A preemergence, visual plant response rating
# Method in brief: as §1
# [7] = test system: Italian ryegrass (Lolium multiflorum); test: Test A postemergence, visual plant response rating
# Method in brief: as §1
# [8] = test system: barnyardgrass (Echinochloa crus-galli); test: Test A postemergence, visual plant response rating
# Method in brief: as §1
# [9] = test system: blackgrass (Alopecurus myosuroides); test: Test A postemergence, visual plant response rating
# Method in brief: as §1
# corn (Zea mays) = test: Test A postemergence, visual plant response rating
# Method in brief: as §1
# [10] = test system: foxtail, giant (giant foxtail, Setaria faberii); test: Test A postemergence, visual plant response rating
# Method in brief: as §1
# [11] = test system: galium (catchweed bedstraw, Galium aparine); test: Test A postemergence, visual plant response rating
# Method in brief: as §1
# kochia (Kochia scoparia) [12] = test: Test A postemergence, visual plant response rating
# Method in brief: as §1
# [13] = test system: pigweed (Amaranthus retroflexus); test: Test A postemergence, visual plant response rating
# Method in brief: as §1
# [14] = test system: ragweed (common ragweed, Ambrosia elatior); test: Test A postemergence, visual plant response rating
# Method in brief: as §1
# [15] = test system: wheat (Triticum aestivum); test: Test A postemergence, visual plant response rating
# Method in brief: as §1
# [16] = test system: barnyardgrass (Echinochloa crus-galli); test: Test B flooded paddy test, visual plant response rating; settings: 250 g ai/ha, Flood, applied to paddy water, 2-leaf stage, evaluated after 13 to 15 days
# Method in brief: (§2)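 Flooded-pot treatment: water 3 cm over the soil, chemical delivered into that water, depth unchanged for the duration. Assessed by eye versus controls following 13–15 greenhouse days; plants were at 2 leaves when dosed.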
# [17] = test system: ducksalad (Heteranhera limosa); test: as above; settings: 250 g ai/ha, Flood, applied to paddy water, 2-leaf stage, evaluated after 13 to 15 days
# Method in brief: as §2
# rice (Oryza sativa) = test: as above; settings: 250 g ai/ha, Flood, applied to paddy water, 2-leaf stage, evaluated after 13 to 15 days
# Method in brief: as §2
# [18] = test system: sedge, umbrella (small-flower umbrella sedge, Cyperus difformis); test: as above; settings: 250 g ai/ha, Flood, applied to paddy water, 2-leaf stage, evaluated after 13 to 15 days
# Method in brief: as §2
# [19] = 125 g ai/ha, preemergence, 0 to 100 scale, 0 no effect, 100 complete control
# [20] = 500 g ai/ha Preemergence, approx. 10 days
# [21] = 500 g ai/ha, postemergence, 0 is no effect, 100 is complete control
# [22] = Postemergence, 125 g ai/ha, 0 to 100 scale (0 no effect, 100 complete control)
compound,measurement,setting,value
CON=C(c1cc(C(F)(F)F)ccc1Cl)c1c(O)c(C)nn(C)c1=O [Compound 73],"Ryegrass, Italian plant response rating",[1]; [19],20
same,"Ryegrass, Italian plant response rating (0 to 100 scale)",[1]; [20],50
same,Barnyardgrass plant response rating,[2]; [19],20
same,Barnyardgrass plant response rating (0 to 100 scale),[2]; [20],80
same,"Foxtail, Giant plant response rating",[3]; [19],20
same,"Foxtail, Giant plant response rating (0 to 100 scale)",[3]; [20],80
same,Kochia plant response rating,kochia (Kochia scoparia) [4]; [19],0
same,Kochia plant response rating (0 to 100 scale),kochia (Kochia scoparia) [4]; [20],20
same,Pigweed plant response rating,[5]; [19],70
same,Pigweed plant response rating (0 to 100 scale),[5]; [20],100
same,Ragweed plant response rating,[6]; [19],30
same,Ragweed plant response rating (0 to 100 scale),[6]; [20],90
same,"Ryegrass, Italian plant response rating (0 to 100 scale)",[7]; [21],90
same,"Ryegrass, Italian plant response rating",[7]; [22],40
same,Barnyardgrass plant response rating (0 to 100 scale),[8]; [21],60
same,Barnyardgrass plant response rating,[8]; [22],20
same,Blackgrass plant response rating (0 to 100 scale),[9]; [21],90
same,Blackgrass plant response rating,[9]; [22],30
same,Corn plant response rating (0 to 100 scale),corn (Zea mays); [21],20
same,Corn plant response rating,corn (Zea mays); [22],0
same,"Foxtail, Giant plant response rating (0 to 100 scale)",[10]; [21],60
same,"Foxtail, Giant plant response rating",[10]; [22],30
same,Galium plant response rating (0 to 100 scale),[11]; [21],70
same,Galium plant response rating,[11]; [22],70
same,Kochia plant response rating (0 to 100 scale),kochia (Kochia scoparia) [12]; [21],80
same,Kochia plant response rating,kochia (Kochia scoparia) [12]; [22],60
same,Pigweed plant response rating (0 to 100 scale),[13]; [21],90
same,Pigweed plant response rating,[13]; [22],80
same,Ragweed plant response rating (0 to 100 scale),[14]; [21],80
same,Ragweed plant response rating,[14]; [22],50
same,Wheat plant response rating (0 to 100 scale),[15]; [21],40
same,Wheat plant response rating,[15]; [22],20
same,"Plant response rating, Barnyardgrass (0 to 100 scale, 0 is no effect, 100 is complete control)",[16],0
same,"Plant response rating, Ducksalad (0 to 100 scale, 0 is no effect, 100 is complete control)",[17],0
same,"Plant response rating, Rice (0 to 100 scale, 0 is no effect, 100 is complete control)",rice (Oryza sativa),0
same,"Plant response rating, Sedge, Umbrella (0 to 100 scale, 0 is no effect, 100 is complete control)",[18],0

# Source: US20210045385A1, “PYRIDAZINONE-SUBSTITUTED KETOXIMES AS HERBICIDES” (FMC Corporation, priority 2018, published 2021)
